Measured values taken from patent US12577234B2, “Antagonists of the muscarinic acetylcholine receptor M4” (Vanderbilt University, priority 2017, dated 2026).

What was measured:
[1] = test system: haloperidol-induced catalepsy in mice; assay: catalepsy induced by the DA receptor antagonist haloperidol; format: in vivo
[2] = test system: M4 knockout mice; details: but not the other four mAChR subtypes; cited from earlier work
[3] = biological target: T1, human mAChR M4 (Homo sapiens, UniProt P08173); assay: mAChR M4 cell-based functional assay (calcium mobilization, EC80 acetylcholine), human M4; details: Table 10
T1 construct: expressed in transfected cells; host or cells: CHO-K1 (ATCC), stably co-expressing chimeric G protein Gqi5
T1 sequence (P08173 1-479): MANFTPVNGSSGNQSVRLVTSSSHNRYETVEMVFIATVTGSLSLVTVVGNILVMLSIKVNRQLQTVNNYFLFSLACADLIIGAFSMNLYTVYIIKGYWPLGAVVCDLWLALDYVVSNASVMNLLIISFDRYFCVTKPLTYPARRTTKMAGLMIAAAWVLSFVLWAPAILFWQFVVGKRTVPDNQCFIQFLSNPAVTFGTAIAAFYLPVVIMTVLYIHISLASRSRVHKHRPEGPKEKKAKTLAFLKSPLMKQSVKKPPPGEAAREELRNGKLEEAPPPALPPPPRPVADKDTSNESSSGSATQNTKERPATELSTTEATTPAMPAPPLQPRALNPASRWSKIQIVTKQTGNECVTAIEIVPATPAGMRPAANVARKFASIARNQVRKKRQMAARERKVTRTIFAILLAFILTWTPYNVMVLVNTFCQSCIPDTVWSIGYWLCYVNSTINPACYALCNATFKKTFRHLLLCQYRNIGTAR
Summary of the method: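 CHO-K1 cells stably expressing human M4 with chimeric Gqi5; intracellular calcium rise read on FDSS as fluorescence static ratio at 1 Hz. Compounds in 10-point 1:3 dilution series; IC50 taken as concentration-dependent decrease of the EC80 acetylcholine response, four-parameter logistic fit.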

[4] = biological target: T2, rat mAChR M4 (Rattus norvegicus, UniProt P08485); assay: mAChR M4 cell-based functional assay (calcium mobilization, EC80 acetylcholine), rat M4; details: Table 10
T2 construct: expressed in transfected cells; host or cells: CHO-K1 (ATCC), stably co-expressing chimeric G protein Gqi5
T2 sequence (P08485 1-478): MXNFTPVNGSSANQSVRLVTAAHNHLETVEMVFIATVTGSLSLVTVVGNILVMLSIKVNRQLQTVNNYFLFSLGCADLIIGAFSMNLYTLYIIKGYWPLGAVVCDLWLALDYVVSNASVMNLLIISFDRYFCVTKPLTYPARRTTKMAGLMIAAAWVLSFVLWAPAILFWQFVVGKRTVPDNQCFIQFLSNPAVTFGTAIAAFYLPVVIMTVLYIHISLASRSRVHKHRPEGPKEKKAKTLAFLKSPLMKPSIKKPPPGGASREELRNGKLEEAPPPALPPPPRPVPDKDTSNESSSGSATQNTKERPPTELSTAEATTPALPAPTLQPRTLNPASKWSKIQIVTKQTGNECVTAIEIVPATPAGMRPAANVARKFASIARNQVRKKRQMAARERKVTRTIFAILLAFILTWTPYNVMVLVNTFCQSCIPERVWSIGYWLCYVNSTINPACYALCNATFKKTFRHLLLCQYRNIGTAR
Protocol: Human or rat M4 cDNA, along with the chimeric G protein Gqi5, were transfected into Chinese hamster ovary (CHO-K1) cells purchased from the American Type Culture Collection using Lipofectamine2000. M4/Gqi5/CHO cells were grown in Ham's F-12 medium containing 10% heat-inactivated fetal bovine serum (FBS), 20 mM HEPES, 500 μg/mL G418 sulfate, and 200 μg/mL Hygromycin B.
For high throughput measurement of agonist-evoked increases in intracellular calcium, CHO-K1 cells stably expressing muscarinic receptors were plated in growth medium lacking G418 and hygromycin at 15,000 cells/20 μL/well in Greiner 384-well black-walled, tissue culture (TC)-treated, clear-bottom plates (VWR). Cells were incubated overnight at 37° C. and 5% CO2. The next day, cells were washed using an ELX 405 (BioTek) with assay buffer; the final volume was then aspirated to 20 μL. Next, 20 μL of a 2.3 μM stock of Fluo-4/acetoxymethyl ester (Invitrogen, Carlsbad, CA), prepared as a 2.3 mM stock in DMSO and mixed in a 1:1 ratio with 10% (w/v) Pluronic F-127 and diluted in assay buffer, was added to the wells and the cell plates were incubated for 50 min at 37° C. and 5% CO2. Dye was removed by washing with the ELX 405 and the final volume was aspirated to 20 μL. Compound master plates were formatted in a 10 point concentration-response curve (CRC) format (1:3 dilutions) in 100% DMSO with a starting concentration of 10 or 1 mM using a BRAVO liquid handler (Agilent). Test compound CRCs were then transferred to daughter plates (240 nL) using the Echo acoustic plate reformatter (Labcyte, Sunnyvale, CA) and then diluted into assay buffer (40 μL) to a 2× stock using a Thermo Fisher Combi (Thermo Fisher Scientific, Waltham, MA).
Calcium flux was measured using the Functional Drug Screening System (FDSS) 6000 or 7000 (Hamamatsu Corporation, Tokyo, Japan) as an increase in the fluorescent static ratio. Compounds were applied to cells (20 μL, 2×) using the automated system of the FDSS at 2 seconds into the protocol and the data were collected at 1 Hz. At 143 s, 10 μL of an EC20 concentration of the muscarinic receptor agonist acetylcholine was added (5×), followed by the addition of 12 μL of an EC80 concentration of acetylcholine at the 268 s time point (5×). Agonist activity was analyzed as a concentration-dependent increase in calcium mobilization upon compound addition. Positive allosteric modulator activity was analyzed as a concentration-dependent increase in the EC20 acetylcholine response. Antagonist activity was analyzed as a concentration-dependent decrease in the EC80 acetylcholine response; for the purposes of the tables herein, an IC50 (inhibitory concentration 50) was calculated as a concentration-dependent decrease of the response elicited by an EC80 concentration of acetylcholine. Concentration-response curves were generated using a four-parameter logistical equation in XLFit curve fitting software (IDBS, Bridgewater, NJ) for Excel (Microsoft, Redmond, WA) or Prism (GraphPad Software, Inc., San Diego, CA) or the Dotmatics software platform (Dotmatics, Bishop's Stortford, UK).

[5] = M4/Gqi5/CHO-K1 cells, decrease of EC80 acetylcholine response

Row | Human M4 Emin [3] [%] | IC50 [3, 5] [nM] | Rat M4 Emin [4] [%] | IC50 [4, 5] [nM] | Compound | reduction of haloperidol-induced catalepsy ([1]; M4KO mice) | reversal of haloperidol-induced catalepsy ([1]; WT mice) | locomotor-activating effects [2]
1 | – | – | – | – | CN1[C@@H]2C[C@@H](OC(=O)[C@H](CO)c3ccccc3)C[C@H]1[C@@H]1O[C@@H]12 [scopolamine] | ineffective in reducing catalepsy | completely reversed | dramatically reduced
2 | 3 | 59.1 | 3 | 382 | CC(C)(C)CCN1C[C@H]2C[C@H](Oc3ccc(-c4ccc5c(c4)OCO5)nn3)C[C@H]2C1 [Compound 138, (3aR,5s,6aS)-5-[6-(1,3-benzodioxol-5-yl)pyridazin-3-yl]oxy-2-(3,3-dimethylbutyl)-3,3a,4,5,6,6a-hexahydro-1H-cyclopenta[c]pyrrole] | – | – | –
